System: IL-1-stimulated release of radiolabelled proteoglycan from bovine cartilage explants
Assay: Bovine cartilage explant assay with rhIL-1α and plasminogen (35S-GAG release)
Format: cell-based
Conditions: Bos taurus, rhIL-1α 5 ng/mL, plasminogen 0.4 μM
From the text: A tissue culture assay was used to measure the ability of the compounds of the present invention to slow the degradation of the extracellular matrix by metalloproteinases. This assay measured the amount of ^35S-glycosaminoglycan (^35S-GAG) released from labeled bovine cartilage explants.
Knee joints from a 1 to 3 week old calf were obtained immediately after sacrifice from the Abattoir and then transported on ice. The intact joints were washed well with tap water and soaked in 50% (v/v) Povidine iodine solution, obtained from Burre National, Inc., Baltimore, Md. All subsequent steps were performed in a laminar flow tissue culture hood using standard sterile technique. The joint was immobilized in a shank holder and the joint capsule was cut open to expose the articular cartilage. […]
Individual disks obtained were transferred to a tissue culture flask containing about 100 mL fresh media. […] When ready to label, the old media was replaced with 50 mL fresh media containing about 1.2 mCi ^35S-Sodium Sulfate. […]
The TC plates were then placed in the incubator and cultured for 3-4 days (initial incubation with rhIL-1α alpha takes at least 3 days to stimulate endogenous metalloproteinases). A 50 μL aliquot of media from each TC plate was saved and counted. […]

`CO[C@H]1[C@@H](OC)C[C@H](C)[C@@H](OC)C2=CC(=O)C=C(NC(=O)/C(C)=C/C=C\[C@H](OC)[C@@H](OC(N)=O)/C(C)=C/[C@@H]1C)C2=O` [Herbimycin A] was tested, and the inhibition at 2 µM was about 70%.
